The source of these data is ChEMBL document CHEMBL1806395, “Recognition of drug degradation products by target proteins: isotetracycline binding to Tet repressor” (J Med Chem, 2011).

A short description of test [1]: Binding affinity to recombinant TetR(D) expressed in Escherichia coli RB791 by SPR analysis. (In general: SPR reads the build-up and loss of mass on a sensor chip optically.)
A short description of test [2]: Binding affinity to recombinant TetR(D) expressed in Escherichia coli RB791 by fuorescence assay.

In the case of `CN(C)[C@@H]1C(O)=C(C(N)=O)C(=O)[C@@]2(O)C(O)=C[C@@H]([C@]3(C)OC(=O)c4c(O)ccc(Cl)c43)C[C@@H]12`, in test [1], the Ka is 0.8 µM⁻¹. With `CN(C)[C@@H]1C(O)=C(C(N)=O)C(=O)[C@@]2(O)C(O)=C3C(=O)c4c(O)ccc(Cl)c4[C@@](C)(O)[C@H]3C[C@@H]12`, the Ka in test [1] came to 2.36 µM⁻¹; in test [2] it was 2.3 µM⁻¹.
